From patent US12612407B2, “Imidazo[2,1-f][1,2,4]triazin-4-amine derivatives as TLR7 agonist” (BEIGENE, LTD., priority 2020, dated 2026)

biological target: T1, human TLR7 (Homo sapiens, UniProt Q9NYK1); assay: HEK293-Blue hTLR7 Reporter Assay (QUANTI-BLUE, SEAP readout); assay type: cell-based; conditions: HEK-Blue-hTLR7 cells, 24 hrs treatment, Table 1, B1-B232
T1 construct: host or cells: HEK293 (HEK-Blue hTLR7)
T1 sequence (Q9NYK1 27-1049): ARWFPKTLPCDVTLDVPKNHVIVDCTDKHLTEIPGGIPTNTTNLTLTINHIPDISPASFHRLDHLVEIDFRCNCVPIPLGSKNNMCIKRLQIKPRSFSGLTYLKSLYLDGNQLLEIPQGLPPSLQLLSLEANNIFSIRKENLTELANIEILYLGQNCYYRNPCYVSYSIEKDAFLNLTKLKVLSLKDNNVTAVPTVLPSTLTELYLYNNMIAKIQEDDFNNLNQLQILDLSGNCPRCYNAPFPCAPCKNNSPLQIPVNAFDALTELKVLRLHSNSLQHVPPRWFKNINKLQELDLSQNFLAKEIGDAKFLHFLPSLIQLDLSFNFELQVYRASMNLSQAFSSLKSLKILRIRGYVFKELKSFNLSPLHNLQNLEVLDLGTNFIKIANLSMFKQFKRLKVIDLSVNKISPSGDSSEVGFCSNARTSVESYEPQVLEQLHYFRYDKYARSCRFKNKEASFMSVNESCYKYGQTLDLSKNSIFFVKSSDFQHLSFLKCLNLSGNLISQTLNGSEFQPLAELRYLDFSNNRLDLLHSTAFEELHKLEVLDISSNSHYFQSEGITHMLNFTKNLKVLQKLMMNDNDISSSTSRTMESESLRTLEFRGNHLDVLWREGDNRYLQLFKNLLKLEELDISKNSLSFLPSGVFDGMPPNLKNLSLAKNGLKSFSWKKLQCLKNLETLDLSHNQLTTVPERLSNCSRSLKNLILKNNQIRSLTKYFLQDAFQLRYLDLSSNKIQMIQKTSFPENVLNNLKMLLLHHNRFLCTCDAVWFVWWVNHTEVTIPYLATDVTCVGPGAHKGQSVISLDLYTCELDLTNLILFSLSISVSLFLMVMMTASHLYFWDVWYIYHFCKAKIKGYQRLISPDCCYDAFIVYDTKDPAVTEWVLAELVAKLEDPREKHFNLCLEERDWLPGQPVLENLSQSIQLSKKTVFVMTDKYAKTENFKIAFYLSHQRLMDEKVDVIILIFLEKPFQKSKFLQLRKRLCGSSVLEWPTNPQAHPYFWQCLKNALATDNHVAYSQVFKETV
In short: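 HEK-Blue-hTLR7 cells expressing NF-κB/AP-1-driven SEAP, 4×10^4 cells/well, treated 24 h at 37° C with increasing compound concentrations. Supernatant SEAP measured with Quanti-blue substrate (10-30 min, 37° C) at 620-655 nm; EC50 from sigmoidal dose-response fit.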

Structure (SMILES) | EC50
CCCCOc1nc(N)c2ncc(Cc3cnc(N4CCN(C(=O)CN(CC)CC)CC4)c(C)c3)n2n1 [Compound B170, 1-(4-(5-((4-amino-2-butoxyimidazo[2,1-f][1,2,4]triazin-7-yl)methyl)-3-methylpyridin-2-yl)piperazin-1-yl)-2-(diethylamino)ethan-1-one] | 0.029 µM
Cc1cc(Cc2cnc3c(N)nc(OC4CCCC4)nn23)cnc1N1CCNCC1 [Compound B172, 2-(cyclopentyloxy)-7-((5-methyl-6-(piperazin-1-yl)pyridin-3-yl)methyl)imidazo[2,1-f][1,2,4]triazin-4-amine] | 0.26 µM
COCC(C)Oc1nc(N)c2ncc(Cc3cnc(N4CCNCC4)c(C)c3)n2n1 (centres unmarked) [Compound B174, 2-((1-methoxypropan-2-yl)oxy)-7-((5-methyl-6-(piperazin-1-yl)pyridin-3-yl)methyl)imidazo[2,1-f][1,2,4]triazin-4-amine] | 0.048 µM
CCCCOc1nc(N)c2ncc(Cc3cnc(N4CCN(C(=O)CN(C)C)[C@@H](C)C4)c(C)c3)n2n1 [Compound B179, (S)-1-(4-(5-((4-amino-2-butoxyimidazo[2,1-f][1,2,4]triazin-7-yl)methyl)-3-methylpyridin-2-yl)-2-methylpiperazin-1-yl)-2-(dimethylamino)ethan-1-one] | 0.038 µM
CCCCCc1nc(N)c2ncc(Cc3cnc(N4CCNCC4)c(C)c3)n2n1 [Compound B180, 7-((5-methyl-6-(piperazin-1-yl)pyridin-3-yl)methyl)-2-pentylimidazo[2,1-f][1,2,4]triazin-4-amine] | 0.27 µM
CCCCOc1nc(N)c2ncc(Cc3cnc(N4CCNCC4)c(CC)c3)n2n1 [Compound B183, 2-butoxy-7-((5-ethyl-6-(piperazin-1-yl)pyridin-3-yl)methyl)imidazo[2,1-f][1,2,4]triazin-4-amine] | 0.093 µM
CCCC(CCC)Nc1nc(N)c2ncc(Cc3cnc(N4CCC(N(C)C)CC4)c(C)c3)n2n1 [Compound B184, 7-((6-(4-(dimethylamino)piperidin-1-yl)-5-methylpyridin-3-yl)methyl)-N2-(heptan-4-yl)imidazo[2,1-f][1,2,4]triazine-2,4-diamine] | 0.0036 µM
Cc1cc(Cc2cnc3c(N)nc(OCC4CCCCC4)nn23)cnc1N1CCNCC1 [Compound B192, 2-(cyclohexylmethoxy)-7-((5-methyl-6-(piperazin-1-yl)pyridin-3-yl)methyl)imidazo[2,1-f][1,2,4]triazin-4-amine] | 2.68 µM
Cc1cc(Cc2cnc3c(N)nc(OCC4CCOC4)nn23)cnc1N1CCNCC1 (centres unmarked) [Compound B193, 7-((5-methyl-6-(piperazin-1-yl)pyridin-3-yl)methyl)-2-((tetrahydrofuran-3-yl)methoxy)imidazo[2,1-f][1,2,4]triazin-4-amine] | 0.902 µM
Cc1cc(Cc2cnc3c(N)nc(OCC4CCOCC4)nn23)cnc1N1CCNCC1 [Compound B194, 7-((5-methyl-6-(piperazin-1-yl)pyridin-3-yl)methyl)-2-((tetrahydro-2H-pyran-4-yl)methoxy)imidazo[2,1-f][1,2,4]triazin-4-amine] | 0.08 µM
CCCC(Oc1nc(N)c2ncc(Cc3cnc(N4CCNCC4)c(C)c3)n2n1)C1CC1 (centres unmarked) [Compound B202, 2-(1-cyclopropylbutoxy)-7-((5-methyl-6-(piperazin-1-yl)pyridin-3-yl)methyl)imidazo[2,1-f][1,2,4]triazin-4-amine] | 0.015 µM

Further lines, results first:

EC50 | Structure (SMILES)
0.0033 µM | CCC(CC)Nc1nc(N)c2ncc(Cc3cnc(N4CCN(C(=O)CNC)CC4)c(C)c3)n2n1 [Compound B175, 1-(4-(5-((4-amino-2-(pentan-3-ylamino)imidazo[2,1-f][1,2,4]triazin-7-yl)methyl)-3-methylpyridin-2-yl)piperazin-1-yl)-2-(methylamino)ethan-1-one]
0.0086 µM | CCCC(CCO)Oc1nc(N)c2ncc(Cc3cnc(N4CCN(C(=O)CN(C)C)CC4)c(C)c3)n2n1 (centres unmarked) [Compound B176, 1-(4-(5-((4-amino-2-((1-hydroxyhexan-3-yl)oxy)imidazo[2,1-f][1,2,4]triazin-7-yl)methyl)-3-methylpyridin-2-yl)piperazin-1-yl)-2-(dimethylamino)ethan-1-one]
0.0078 µM | CCCC(CC)Oc1nc(N)c2ncc(Cc3cnc(N4CCN(C(=O)CNC)CC4)c(C)c3)n2n1 (centres unmarked) [Compound B181, 1-(4-(5-((4-amino-2-(hexan-3-yloxy)imidazo[2,1-f][1,2,4]triazin-7-yl)methyl)-3-methylpyridin-2-yl)piperazin-1-yl)-2-(methylamino)ethan-1-one]
0.0049 µM | CCCC(CCC)Oc1nc(N)c2ncc(Cc3cnc(N4CCC(N(C)C)CC4)c(C)c3)n2n1 [Compound B186, 7-((6-(4-(dimethylamino)piperidin-1-yl)-5-methylpyridin-3-yl)methyl)-2-(heptan-4-yloxy)imidazo[2,1-f][1,2,4]triazin-4-amine]
0.029 µM | CCC(CC)Oc1nc(N)c2ncc(Cc3cnc(N4CCC(N(C)C)CC4)c(C)c3)n2n1 [Compound B187, 7-((6-(4-(dimethylamino)piperidin-1-yl)-5-methylpyridin-3-yl)methyl)-2-(pentan-3-yloxy)imidazo[2,1-f][1,2,4]triazin-4-amine]
0.0036 µM | CCCC(CCC)Oc1nc(N)c2ncc(Cc3cnc(N4CCN(C(=O)CN(C)C)CC4)c(C)c3)n2n1 [Compound B188, 1-(4-(5-((4-amino-2-(heptan-4-yloxy)imidazo[2,1-f][1,2,4]triazin-7-yl)methyl)-3-methylpyridin-2-yl)piperazin-1-yl)-2-(dimethylamino)ethan-1-one]
0.019 µM | CCC(CC)Oc1nc(N)c2ncc(Cc3cnc(N4CCC(CN(C)C)CC4)c(C)c3)n2n1 [Compound B189, 7-((6-(4-((dimethylamino)methyl)piperidin-1-yl)-5-methylpyridin-3-yl)methyl)-2-(pentan-3-yloxy)imidazo[2,1-f][1,2,4]triazin-4-amine]
0.0079 µM | CCCC(CCC)Nc1nc(N)c2ncc(Cc3cnc(N4CCNCC4)c(C)c3)n2n1 [Compound B191, N2-(heptan-4-yl)-7-((5-methyl-6-(piperazin-1-yl)pyridin-3-yl)methyl)imidazo[2,1-f][1,2,4]triazine-2,4-diamine]
0.0057 µM | CCCC(CCC)Nc1nc(N)c2ncc(Cc3cnc(N4CCN(C(=O)CNC)CC4)c(C)c3)n2n1 [Compound B196, 1-(4-(5-((4-amino-2-(heptan-4-ylamino)imidazo[2,1-f] [1,2,4]triazin-7-yl)methyl)-3-methylpyridin-2-yl)piperazin-1-yl)-2-(methylamino)ethan-1-one]
0.0039 µM | CCCC(CCC)Oc1nc(N)c2ncc(Cc3cnc(N4CCN(C(=O)CNC)CC4)c(C)c3)n2n1 [Compound B197, 1-(4-(5-((4-amino-2-(heptan-4-yloxy)imidazo[2,1-f][1,2,4]triazin-7-yl)methyl)-3-methylpyridin-2-yl)piperazin-1-yl)-2-(methylamino)ethan-1-one]
0.0041 µM | CCCC(CCC)Oc1nc(N)c2ncc(Cc3cnc(N4CCC(CN(C)C)CC4)c(C)c3)n2n1 [Compound B198, 7-((6-(4-((dimethylamino)methyl)piperidin-1-yl)-5-methylpyridin-3-yl)methyl)-2-(heptan-4-yloxy)imidazo[2,1-f][1,2,4]triazin-4-amine]
0.0081 µM | CCC[C@H](C)Oc1nc(N)c2ncc(Cc3cnc(N4CCN(CCO)CC4)c(C)c3)n2n1 [Compound B199, (S)-2-(4-(5-((4-amino-2-(pentan-2-yloxy)imidazo[2,1-f][1,2,4]triazin-7-yl)methyl)-3-methylpyridin-2-yl)piperazin-1-yl)ethan-1-ol]
0.025 µM | CCC(CC)Oc1nc(N)c2ncc(Cc3cnc(N4CCN(C(=O)CN(C)C)CC4)c(C)c3)n2n1 [Compound B200, 1-(4-(5-((4-amino-2-(pentan-3-yloxy)imidazo[2,1-f][1,2,4]triazin-7-yl)methyl)-3-methylpyridin-2-yl)piperazin-1-yl)-2-(dimethylamino)ethan-1-one]
0.028 µM | CCC(CC)Oc1nc(N)c2ncc(Cc3cnc(N4CCN(C(=O)CNC)CC4)c(C)c3)n2n1 [Compound B201, 1-(4-(5-((4-amino-2-(pentan-3-yloxy)imidazo[2,1-f][1,2,4]triazin-7-yl)methyl)-3-methylpyridin-2-yl)piperazin-1-yl)-2-(methylamino)ethan-1-one]
0.0073 µM | CCCC(C)Nc1nc(N)c2ncc(Cc3cnc(N4CCC(CNC)CC4)c(C)c3)n2n1 (centres unmarked) [Compound B204, 7-((5-methyl-6-(4-((methylamino)methyl)piperidin-1-yl)pyridin-3-yl)methyl)-N2-(pentan-2-yl)imidazo[2,1-f][1,2,4]triazine-2,4-diamine]
